Experimental data taken from ChEMBL document CHEMBL6121000, “Corosolic acid and its derivatives targeting MCCC1 against insulin resistance and their hypoglycemic effect on type 2 diabetic mice” (Eur J Med Chem, 2025).
Values after ≈ are worked out from the molar mass of the structure shown. Active and inactive are the calls of the source. No cut-off for these calls is given here.

Columns and labels:
HepG2 [1] = assay: Inhibition of insulin resistance in human HepG2 cells assessed as decrease in GlcN-induced glucose production at 20 uM preincubated for 1 hr followed by GlcN treatment for 18 hrs and subsequent insulin stimulation for 20 mins; assay type: functional, cell-based; settings: time 19.33 hrs
[2] = Toxicity in Sprague-Dawley rat assessed as reduction in number of crypts in colon tissue at 20 mg/kg, po for 5 days; assay type: organism-based; settings: in vivo, 120 h, time 5 day
[3] = Toxicity in Sprague-Dawley rat assessed as damage in lungs at 20 mg/kg, po for 5 days; assay type: organism-based; settings: in vivo, 120 h, time 5 day
HepG2 [4] = assay: Inhibition of insulin resistance in human HepG2 cells assessed as restoration of GlcN-reduced MCCC1 level at 40 uM preincubated for 1 hr followed by GlcN treatment for 18 hrs in presence of VPA by Western blot analysis; assay type: functional, cell-based; settings: time 19.0 hrs
Mus musculus [5] = assay: Hypoglycemic activity in HFD-fed STZ-induced diabetic C57BL/6J mouse model assessed as improvement in triglyceride level in liver at 10 to 20 mg/kg, po administered everyday for 3 weeks; assay type: functional, organism-based; settings: dose 10-20 mg/kg
[6] = Cytotoxicity against human HepG2 cells assessed as cell viability at 80 uM incubated for 24 hrs by CCK8 assay relative to control; assay type: toxicity, cell-based; settings: HepG2 cells, read-out: Activity
HepG2 [7] = assay: Induction of glucose uptake in human HepG2 cells assessed as increase in GlcN-reduced AKT phosphorylation at 40 uM preincubated for 1 hr followed by GlcN addition measured after 18 hrs in presence of VPA by Western blot analysis; assay type: functional, cell-based; settings: time 19.0 hrs
Mus musculus [8] = assay: Hypoglycemic activity in HFD-fed STZ-induced diabetic C57BL/6J mouse model assessed as improvement in total cholesterol level in liver at 10 to 20 mg/kg, po administered everyday for 3 weeks; assay type: functional, organism-based; settings: dose 10-20 mg/kg
[9] = Solubility of compound in PBS; assay type: physicochemical
[10] = biological target: T1, Methylcrotonoyl-CoA carboxylase subunit alpha, mitochondrial (Homo sapiens) (UniProt Q96RQ3); assay: Binding affinity to MCCC1 in human HepG2 cells assessed as thermal stability at 40 uM incubated for 1 hr followed by heat exposure for 3 mins by CETSA; assay type: cell-based
T1 sequence (whole entry): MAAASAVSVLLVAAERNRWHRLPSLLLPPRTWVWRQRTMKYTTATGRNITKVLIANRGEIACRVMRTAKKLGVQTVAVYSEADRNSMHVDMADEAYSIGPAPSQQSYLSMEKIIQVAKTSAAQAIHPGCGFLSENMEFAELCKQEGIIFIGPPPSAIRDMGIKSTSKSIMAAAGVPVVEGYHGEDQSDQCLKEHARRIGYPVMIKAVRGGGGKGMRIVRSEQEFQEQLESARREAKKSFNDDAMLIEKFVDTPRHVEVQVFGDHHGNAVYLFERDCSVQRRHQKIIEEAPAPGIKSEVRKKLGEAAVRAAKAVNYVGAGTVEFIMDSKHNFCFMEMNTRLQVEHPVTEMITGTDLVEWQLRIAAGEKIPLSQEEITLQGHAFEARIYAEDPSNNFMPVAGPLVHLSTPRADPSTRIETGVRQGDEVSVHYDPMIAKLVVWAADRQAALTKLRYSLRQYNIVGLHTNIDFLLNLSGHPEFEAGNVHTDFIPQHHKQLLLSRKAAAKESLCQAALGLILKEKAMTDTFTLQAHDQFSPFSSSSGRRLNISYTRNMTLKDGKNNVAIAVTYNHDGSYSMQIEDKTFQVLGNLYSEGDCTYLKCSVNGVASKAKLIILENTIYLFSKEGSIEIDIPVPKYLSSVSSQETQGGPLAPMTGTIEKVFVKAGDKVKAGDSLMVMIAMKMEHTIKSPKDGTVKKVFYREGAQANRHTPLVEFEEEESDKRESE

[11] = Toxicity in Sprague-Dawley rat assessed as damage in spleen at 20 mg/kg, po for 5 days; assay type: organism-based; settings: in vivo, 120 h, time 5 day
Mus musculus [12] = assay: Hypoglycemic activity in HFD-fed STZ-induced diabetic C57BL/6J mouse model assessed as increase in AKT phosphorylation in liver at 10 to 20 mg/kg, po administered everyday for 3 weeks by Western blot analysis; assay type: functional, organism-based; settings: dose 10-20 mg/kg
Mus musculus [13] = assay: Hypoglycemic activity in HFD-fed STZ-induced diabetic C57BL/6J mouse model assessed as improvement in weight loss at 10 to 20 mg/kg, po administered everyday for 3 weeks; assay type: functional, organism-based; settings: dose 10-20 mg/kg
HepG2 [14] = assay: Inhibition of insulin resistance in human HepG2 cells assessed as decrease in GlcN-induced glucose production at 40 uM preincubated for 1 hr followed by GlcN treatment for 18 hrs and subsequent insulin stimulation for 20 mins in presence of VPA by glucose oxidase-peroxidase assay; assay type: functional, cell-based; settings: time 19.33 hrs
[15] = Toxicity in Sprague-Dawley rat assessed as inflammatory cell infiltration in colon tissue at 20 mg/kg, po for 5 days; assay type: organism-based; settings: in vivo, 120 h, time 5 day
Mus musculus [16] = assay: Hypoglycemic activity in HFD-fed STZ-induced diabetic C57BL/6J mouse model assessed as reversal of diabetes-reduced MCCC1 level in liver at 10 to 20 mg/kg, po administered everyday for 3 weeks by Western blot analysis; assay type: functional, organism-based; settings: dose 10-20 mg/kg
Mus musculus [17] = assay: Hypoglycemic activity in HFD-fed STZ-induced diabetic C57BL/6J mouse model assessed as increase in hepatic glycogen synthesis at 10 to 20 mg/kg, po administered everyday for 3 weeks; assay type: functional, organism-based; settings: dose 10-20 mg/kg
Mus musculus [18] = assay: Hypoglycemic activity in HFD-fed STZ-induced diabetic C57BL/6J mouse model assessed as increase in GLUT4 level in liver at 10 to 20 mg/kg, po administered everyday for 3 weeks by Western blot analysis; assay type: functional, organism-based; settings: dose 10-20 mg/kg
Mus musculus [19] = assay: Hypoglycemic activity in 12 hr-fasted STZ-induced diabetic C57BL/6J mouse model assessed as decrease in blood glucose level at 20 mg/kg, po measured for 30 to 90 mins by insulin tolerance test; assay type: functional, organism-based; settings: time 30-90 min
HepG2 [20] = assay: Lipid lowering activity in human HepG2 cells assessed as reduction in FFA-induced triglyceride content at 20 uM preincubated for 1 hr followed by FFA treatment for 24 hrs; assay type: functional, cell-based; settings: time 25.0 hrs
[21] = Toxicity in Sprague-Dawley rat assessed as damage in heart at 20 mg/kg, po for 5 days; assay type: organism-based; settings: in vivo, 120 h, time 5 day
[22] = biological target: T1, Methylcrotonoyl-CoA carboxylase subunit alpha, mitochondrial (Homo sapiens); assay: Binding affinity to MCCC1 in human HepG2 cells assessed as reduction in pronase-mediated MCCC1 degradation at 40 to 80 uM preincubated for 1 hr followed by pronase addition measured after 10 mins by DARTS assay; assay type: cell-based; settings: dose 40-80 µM, time 70.0 min
HepG2 [23] = assay: Induction of glucose uptake in human HepG2 cells assessed as increase in GlcN-reduced GLUT4 level at 2.5 to 20 uM preincubated for 1 hr followed by GlcN addition measured after 24 hrs by Western blot analysis; assay type: functional, cell-based; settings: dose 2.5-20 µM, time 25.0 hrs
HepG2 [24] = assay: Induction of glucose uptake in human HepG2 cells assessed as increase in GlcN-reduced GSK-3beta phosphorylation at 2.5 to 20 uM preincubated for 1 hr followed by GlcN addition measured after 24 hrs by Western blot analysis; assay type: functional, cell-based; settings: dose 2.5-20 µM, time 25.0 hrs
HEK293 = assay: Cytotoxicity against HEK293 cells assessed as cell viability at 40 to 320 uM incubated for 24 hrs by CCK8 assay relative to control; assay type: toxicity, cell-based; settings: human, hek293, 24 h, dose 40-320 µM
HepG2 [25] = assay: Induction of glucose uptake in human HepG2 cells assessed as increase in GlcN-reduced AKT phosphorylation at 2.5 to 20 uM preincubated for 1 hr followed by GlcN addition measured after 24 hrs by Western blot analysis; assay type: functional, cell-based; settings: dose 2.5-20 µM, time 25.0 hrs
HepG2 [26] = assay: Inhibition of insulin resistance in human HepG2 cells assessed as restoration of GlcN-reduced MCCC1 level at 40 uM preincubated for 1 hr followed by GlcN treatment for 18 hrs by Western blot analysis; assay type: functional, cell-based; settings: time 19.0 hrs
Mus musculus [27] = assay: Hypoglycemic activity in HFD-fed STZ-induced diabetic C57BL/6J mouse model assessed as decrease in blood glucose level at 10 to 20 mg/kg, po administered everyday for 3 weeks; assay type: functional, organism-based; settings: dose 10-20 mg/kg
Mus musculus [28] = assay: Hypoglycemic activity in 12 hr-fasted STZ-induced diabetic C57BL/6J mouse model assessed as decrease in AUC of blood glucose level at 20 mg/kg, po measured upto 120 mins by insulin tolerance test relative to control; assay type: functional; set-up: scale not given: the % may be the effect or the level left; settings: 2 h
Mus musculus [29] = assay: Hypoglycemic activity in HFD-fed STZ-induced diabetic C57BL/6J mouse model assessed as reduction in glucose production at 10 to 20 mg/kg, po administered everyday for 3 weeks; assay type: functional, organism-based; settings: dose 10-20 mg/kg
HepG2 [30] = assay: Lipid lowering activity in human HepG2 cells assessed as inhibition of FFA-induced triglyceride content at 20 uM preincubated for 1 hr followed by FFA treatment for 24 hrs relative to control; assay type: functional
HepG2 [31] = assay: Inhibition of insulin resistance-associated inflammation in human HepG2 cells assessed as increase in GlcN-reduced I-kaapaB-alpha level at 2.5 to 20 uM preincubated for 1 hr followed by GlcN addition measured after 24 hrs by Western blot analysis; assay type: functional, cell-based; settings: dose 2.5-20 µM
[32] = Toxicity in Sprague-Dawley rat assessed as damage in liver at 20 mg/kg, po for 5 days; assay type: organism-based; settings: in vivo, 120 h, time 5 day
[33] = Toxicity in Sprague-Dawley rat assessed as damage in colon at 20 mg/kg, po for 5 days; assay type: organism-based; settings: in vivo, 120 h, time 5 day

For `C[C@H]1[C@H](C)CC[C@]2(C(=O)NCC(=O)O)CC[C@]3(C)C(=CC[C@@H]4[C@@]5(C)C[C@@H](O)[C@H](O)C(C)(C)[C@@H]5CC[C@]43C)[C@H]12`, the inhibition (HepG2 [1]) was “Active”, the Activity [2] was “Non-toxic” and the Activity [3] was “Non-toxic”. The inhibition (HepG2 [4]) was “inactive”, the Activity (Mus musculus [5]) was “Active” and the viability at 24 h, 80 µM [6] was greater than 80%. For the same compound, the Activity (HepG2 [7]) was “inactive”, the Activity (Mus musculus [8]) was “Active” and the solubility [9] was 3.98 mM (≈ 2110 µg/mL). For the same compound, the Activity [10] was “Active”, the Activity [11] was “Non-toxic” and the Activity (Mus musculus [12]) was “Active”. The Activity (Mus musculus [13]) was “Active”, the inhibition (HepG2 [14]) was “inactive” and the Activity [15] was “Non-toxic”. For the same compound, the Activity (Mus musculus [16]) was “Active”, the Activity (Mus musculus [17]) was “Active” and the Activity (Mus musculus [18]) was “Active”. The Activity (Mus musculus [19]) was “Active”, the Activity (HepG2 [20]) was “Active” and the Activity [21] was “Non-toxic”. The Activity [22] was “Active”, the Activity (HepG2 [23]) was “Active” and the Activity (HepG2 [24]) was “Active”. For the same compound, the Activity (HEK293) was “Non-toxic”, the Activity (HepG2 [25]) was “Active” and the inhibition (HepG2 [26]) was “Active”. For the same compound, the Activity (Mus musculus [27]) was “Active; Activity Similar To Metformin At 200 Mg/Kg”, the Activity (Mus musculus [28]) was 19.4% and the Activity (Mus musculus [29]) was “Active”. For the same compound, the inhibition at 20 µM (HepG2 [30]) was 59.5%, the inhibition (HepG2 [31]) was “Active” and the Activity [32] was “Non-toxic”. The Activity [33] was “Non-toxic”.
